Assay results as given in ChEMBL document CHEMBL1287643, “3D-QSAR pharmacophore modeling and in silico screening of new Bcl-xl inhibitors” (Eur J Med Chem, 2010).

target: Bcl-2-like protein 1 (Homo sapiens, UniProt Q07817); assay: Inhibition of Bcl-XL
Sequence (Q07817 whole entry): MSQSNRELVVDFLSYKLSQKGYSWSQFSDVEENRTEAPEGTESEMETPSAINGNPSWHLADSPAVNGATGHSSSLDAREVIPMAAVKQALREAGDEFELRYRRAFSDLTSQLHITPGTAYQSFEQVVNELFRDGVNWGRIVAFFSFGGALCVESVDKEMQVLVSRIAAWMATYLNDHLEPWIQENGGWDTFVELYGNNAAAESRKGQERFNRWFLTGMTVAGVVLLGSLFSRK

SMILES	EC50
Cc1ccccc1CN1CCN(c2ccc(C(=O)NS(=O)(=O)c3ccc(NC(CCN(C)C)CSc4ccccc4)c([N+](=O)[O-])c3)cc2)CC1 (stereo unspecified)	410 nM
COC1(Cc2ccc(Cl)cc2)CCN(c2ccc(C(=O)NS(=O)(=O)c3ccc(NC(CCN(C)C)CSc4ccccc4)c([N+](=O)[O-])c3)cc2)CC1 (stereo unspecified)	400 nM
CN(C)CCC(CSc1ccccc1)Nc1ccc(S(=O)(=O)NC(=O)c2ccc(N3CCC(=Cc4ccc(C(F)(F)F)cc4)CC3)cc2)cc1[N+](=O)[O-] (stereo unspecified)	2600 nM
COC1(Cc2ccccc2)CCN(c2ccc(C(=O)NS(=O)(=O)c3ccc(NC(CCN(C)C)CSc4ccccc4)c([N+](=O)[O-])c3)cc2)CC1 (stereo unspecified)	681 nM
CN(C)CCC(CSc1ccccc1)Nc1ccc(S(=O)(=O)NC(=O)c2ccc(N3CCC(=Cc4ccc(Cl)cc4)CC3)cc2)cc1[N+](=O)[O-] (stereo unspecified)	619 nM
CN(C)CCC(CSc1ccccc1)Nc1ccc(S(=O)(=O)NC(=O)c2ccc(N3CCN(Cc4ccccc4-c4ccc(S(C)(=O)=O)cc4)CC3)cc2)cc1[N+](=O)[O-] (stereo unspecified)	460 nM
COC1(CC(C)(C)C)CCN(c2ccc(C(=O)NS(=O)(=O)c3ccc(NC(CCN(C)C)CSc4ccccc4)c([N+](=O)[O-])c3)cc2)CC1 (stereo unspecified)	750 nM
CN(C)CCC(CSc1ccccc1)Nc1ccc(S(=O)(=O)NC(=O)c2ccc(N3CCN(Cc4ccccc4S(C)(=O)=O)CC3)cc2)cc1[N+](=O)[O-] (stereo unspecified)	5500 nM
CN(C)CCC(CSc1ccccc1)Nc1ccc(S(=O)(=O)NC(=O)c2ccc(N3CCC(=Cc4ccccc4C#N)CC3)cc2)cc1[N+](=O)[O-] (stereo unspecified)	1100 nM
CN(C)CCC(CSc1ccccc1)Nc1ccc(S(=O)(=O)NC(=O)c2ccc(N3CCN(Cc4ccccc4NC4CCCCC4)CC3)cc2)cc1[N+](=O)[O-] (stereo unspecified)	661 nM
CN(C)CCC(CSc1ccccc1)Nc1ccc(S(=O)(=O)NC(=O)c2ccc(N3CCC(=Cc4ccccn4)CC3)cc2)cc1[N+](=O)[O-] (stereo unspecified)	550 nM
COC1(Cc2ccc(-c3ccccc3)cc2)CCN(c2ccc(C(=O)NS(=O)(=O)c3ccc(NC(CCN(C)C)CSc4ccccc4)c([N+](=O)[O-])c3)cc2)CC1 (stereo unspecified)	600 nM
COC1(CC(C)C)CCN(c2ccc(C(=O)NS(=O)(=O)c3ccc(NC(CCN(C)C)CSc4ccccc4)c([N+](=O)[O-])c3)cc2)CC1 (stereo unspecified)	579 nM
CN(C)CCC(CSc1ccccc1)Nc1ccc(S(=O)(=O)NC(=O)c2ccc(N3CCN(Cc4ccccc4)CC3)cc2)cc1[N+](=O)[O-] (stereo unspecified)	1100 nM
CN(C)CCC(CSc1ccccc1)Nc1ccc(S(=O)(=O)NC(=O)c2ccc(N3CCN(Cc4ccccc4-c4cccnc4)CC3)cc2)cc1[N+](=O)[O-] (stereo unspecified)	800 nM
CN(C)CCC(CSc1ccccc1)Nc1ccc(S(=O)(=O)NC(=O)c2ccc(N3CCC(=Cc4cccnc4)CC3)cc2)cc1[N+](=O)[O-] (stereo unspecified)	1900 nM

The remaining compounds from weak to strong by EC50, led by results:

EC50	SMILES
390 nM	CN(C)CCC(CSc1ccccc1)Nc1ccc(S(=O)(=O)NC(=O)c2ccc(N3CCN(Cc4ccccc4C(F)(F)F)CC3)cc2)cc1[N+](=O)[O-] (stereo unspecified)
390 nM	COc1ccccc1CN1CCN(c2ccc(C(=O)NS(=O)(=O)c3ccc(NC(CCN(C)C)CSc4ccccc4)c([N+](=O)[O-])c3)cc2)CC1 (stereo unspecified)
380 nM	CN(C)CCC(CSc1ccccc1)Nc1ccc(S(=O)(=O)NC(=O)c2ccc(N3CCC(=Cc4ccc(F)cc4)CC3)cc2)cc1[N+](=O)[O-] (stereo unspecified)
380 nM	COc1cccc(-c2ccccc2CN2CCN(c3ccc(C(=O)NS(=O)(=O)c4ccc(NC(CCN(C)C)CSc5ccccc5)c([N+](=O)[O-])c4)cc3)CC2)c1 (stereo unspecified)
340 nM	CN(C)CCC(CSc1ccccc1)Nc1ccc(S(=O)(=O)NC(=O)c2ccc(N3CCN(Cc4ccccc4C4CCCCC4)CC3)cc2)cc1[N+](=O)[O-] (stereo unspecified)
320 nM	COC1(CC2CCCCC2)CCN(c2ccc(C(=O)NS(=O)(=O)c3ccc(NC(CCN(C)C)CSc4ccccc4)c([N+](=O)[O-])c3)cc2)CC1 (stereo unspecified)
300 nM	COc1ccccc1C=C1CCN(c2ccc(C(=O)NS(=O)(=O)c3ccc(NC(CCN(C)C)CSc4ccccc4)c([N+](=O)[O-])c3)cc2)CC1 (stereo unspecified)
250 nM	COC1(Cc2cccc(Cl)c2)CCN(c2ccc(C(=O)NS(=O)(=O)c3ccc(NC(CCN(C)C)CSc4ccccc4)c([N+](=O)[O-])c3)cc2)CC1 (stereo unspecified)
250 nM	CN(C)CCC(CSc1ccccc1)Nc1ccc(S(=O)(=O)NC(=O)c2ccc(N3CCC(=Cc4ccccc4F)CC3)cc2)cc1[N+](=O)[O-] (stereo unspecified)
230 nM	COC1(Cc2ccccc2Cl)CCN(c2ccc(C(=O)NS(=O)(=O)c3ccc(NC(CCN(C)C)CSc4ccccc4)c([N+](=O)[O-])c3)cc2)CC1 (stereo unspecified)
180 nM	CN(C)CCC(CSc1ccccc1)Nc1ccc(S(=O)(=O)NC(=O)c2ccc(N3CCN(Cc4ccccc4-c4cccc(Cl)c4)CC3)cc2)cc1[N+](=O)[O-] (stereo unspecified)
180 nM	COC1(Cc2ccccc2F)CCN(c2ccc(C(=O)NS(=O)(=O)c3ccc(NC(CCN(C)C)CSc4ccccc4)c([N+](=O)[O-])c3)cc2)CC1 (stereo unspecified)
160 nM	CN(C)CCC(CSc1ccccc1)Nc1ccc(S(=O)(=O)NC(=O)c2ccc(N3CCC(=Cc4ccccc4-c4ccccc4)CC3)cc2)cc1[N+](=O)[O-] (stereo unspecified)
150 nM	CN(C)CCC(CSc1ccccc1)Nc1ccc(S(=O)(=O)NC(=O)c2ccc(N3CCC(=Cc4ccccc4C(F)(F)F)CC3)cc2)cc1[N+](=O)[O-] (stereo unspecified)
150 nM	COC1(Cc2ccccc2C)CCN(c2ccc(C(=O)NS(=O)(=O)c3ccc(NC(CCN(C)C)CSc4ccccc4)c([N+](=O)[O-])c3)cc2)CC1 (stereo unspecified)
150 nM	COc1ccccc1CC1(OC)CCN(c2ccc(C(=O)NS(=O)(=O)c3ccc(NC(CCN(C)C)CSc4ccccc4)c([N+](=O)[O-])c3)cc2)CC1 (stereo unspecified)
130 nM	CN(C)CCC(CSc1ccccc1)Nc1ccc(S(=O)(=O)NC(=O)c2ccc(N3CCN(Cc4ccccc4-c4ccc(F)cc4)CC3)cc2)cc1[N+](=O)[O-] (stereo unspecified)
100 nM	COC1(Cc2ccccc2Br)CCN(c2ccc(C(=O)NS(=O)(=O)c3ccc(NC(CCN(C)C)CSc4ccccc4)c([N+](=O)[O-])c3)cc2)CC1 (stereo unspecified)
95.1 nM	CSc1ccccc1CN1CCN(c2ccc(C(=O)NS(=O)(=O)c3ccc(NC(CCN(C)C)CSc4ccccc4)c([N+](=O)[O-])c3)cc2)CC1 (stereo unspecified)
56 nM	CN(C)CCC(CSc1ccccc1)Nc1ccc(S(=O)(=O)NC(=O)c2ccc(N3CCN(Cc4ccccc4-c4ccccc4Cl)CC3)cc2)cc1[N+](=O)[O-] (stereo unspecified)
40 nM	CN(C)CCC(CSc1ccccc1)Nc1ccc(S(=O)(=O)NC(=O)c2ccc(N3CCN(Cc4ccccc4-c4ccc(C(F)(F)F)cc4)CC3)cc2)cc1[N+](=O)[O-] (stereo unspecified)
35 nM	COC1(Cc2ccccc2-c2ccccc2)CCN(c2ccc(C(=O)NS(=O)(=O)c3ccc(NC(CCN(C)C)CSc4ccccc4)c([N+](=O)[O-])c3)cc2)CC1 (stereo unspecified)
30 nM	COc1ccc(-c2ccccc2CN2CCN(c3ccc(C(=O)NS(=O)(=O)c4ccc(NC(CCN(C)C)CSc5ccccc5)c([N+](=O)[O-])c4)cc3)CC2)cc1 (stereo unspecified)
22 nM	CN(C)CCC(CSc1ccccc1)Nc1ccc(S(=O)(=O)NC(=O)c2ccc(N3CCN(Cc4ccccc4-c4ccc(-c5ccccc5)cc4)CC3)cc2)cc1[N+](=O)[O-] (stereo unspecified)
18 nM	CN(C)CCC(CSc1ccccc1)Nc1ccc(S(=O)(=O)NC(=O)c2ccc(N3CCN(Cc4ccccc4-c4ccccc4)CC3)cc2)cc1[N+](=O)[O-] (stereo unspecified)
